Blank lines part the entries; values can stand above or below the compound they belong to.
Tests used:
[1] = test system: French beans (Phaseolus vulgaris); test: Soil application to French beans, effects on flowering (BBCH) and plant physiology (NDVI, NIR); format: in vivo; set-up: NIR (Near infrared band reflectance): unit not given here; details: 0.01 mg AI per plant drench, mean of 4 reps; for BBCH (plant growth stage): 15DAA, check 57; for NDVI (Normalized difference vegetative index) / NIR (Near infrared band reflectance): 25DAA; for NDVI (Normalized difference vegetative index): check 0.431; for NIR (Near infrared band reflectance): check 4.32
Method: Four two week old French bean plants were treated with 0.01 mg Al per plant as soil application (drench). Plants were kept under glasshouse conditions at 22° C. with a photo-period of 14 h. 15DAA the development stage of blossoms was assessed. 25DAA the photosynthetic capacity of plants (NDVI, NIR) was measured.

[2] = test system: Soybeans (Glycine max); test: Foliar application to soybeans, effects on yield (number and size of pods, root parameters); format: in vivo; details: 68 g AI/ha foliar, 29DAA
Method: Three week old soybean plants (5 replicates) were sprayed with respective test solutions. Test solutions contained the formulated test compound and the adjuvant Mero (0.1% v/v). Plants were kept under glasshouse conditions at 22° C. with a photo-period of 14 h. 29d after application the individual number and size of pods per plant were measured. Additionally, the overall root system of individual plants was scanned and analysed by the image analysis software ‘WinRhizo’ (Regent Instruments Inc., 2009). […] The average number of taller pods (related to number of seeds) was increased.

[3] = test system: Soybeans (Glycine max); test: Foliar application to soybeans, effects on water consumption, plant height, chlorophyll content; format: in vivo; details: soybean, 26 days after spray
Method: Soybean plants were grown in a climate chamber at 22° C. during 14 h daytime and 20° C. during 10 h night at 70% rel.humidity. Plants were sprayed 21 days after sowing with a 100 ga/ha of the test compound, formulated as a standard EC050. Water status was adjusted befor spray for all pots, and plants not watered anymore after spray. After growing further 26 days in the controlled environment, the plant height, chlorophyll content of the third trifoliate-leaf, and water consumption was determined.

[4] = test system: Spring-wheat; test: Foliar application to spring-wheat, effects on water consumption, plant height; format: in vivo; details: 26 days after spray
Method: Wheat plants were grown in a climate chamber at 18° C., 14 h daytime and 10 h night, at 70% rel.humidity. Plants were sprayed 21 days after sowing with a 50 ga/ha of the test compound, formulated as a standard EC050. Water status was adjusted before spray for all pots and plants not watered anymore after spray. After growing further 26 days in the controlled environment the plant height, and water consumption was determined.

- melting point: 93 to 95 °C
SMILES: COCON1C(=O)C(c2cc(C)ccc2C)=C(OC(=O)CC(C)(C)C)C12CCN(OC)CC2 [Compound P1ii.5]

- melting point: 91 to 93 °C
SMILES: COCON1C(=O)C(c2cc(C)ccc2C)=C(OC)C12CCN(OC)CC2 [Compound P1ii.31]

- melting point: 116 to 119 °C
SMILES: CCOC(=O)OC1=C(c2c(F)ccc(C)c2Cl)C(=O)N(OCOC)C12CCN(OC)CC2 [Compound P1ii.61]

- melting point: 122 to 125 °C
SMILES: CCOC(=O)OC1=C(c2c(C)cc(Cl)cc2C)C(=O)N(OC)C12CCN(OC)CC2 [Compound P1ii.114]

- melting point: 121 to 123 °C
SMILES: CON1CCC2(CC1)C(O)=C(c1cc(C)ccc1C)C(=O)N2C [Compound P2.1]

- melting point: 223 to 225 °C
SMILES: CON1CCC2(CC1)C(O)=C(c1c(C)cc(C)cc1C)C(=O)N2CC1CC1 [Compound P2.8, 1-Cyclopropylmethyl-4-hydroxy-8-methoxy-3-(2,4,6-trimethyl-phenyl)-1,8-diaza-spiro[4.5]dec-3-en-2-one]

- melting point: 218 to 221 °C
SMILES: CCN1C(=O)C(c2c(C)cc(C)cc2C)=C(O)C12CCN(OC)CC2 [Compound P2.11]

- melting point: 191 to 193 °C
SMILES: CON1CCC2(CC1)C(O)=C(c1cc(C)c(C)cc1Br)C(=O)N2C [Compound P2.23]

- melting point: 183 to 186 °C
SMILES: CON1CCC2(CC1)C(O)=C(c1cc(C)c(C)cc1C)C(=O)N2C [Compound P2.25]

- melting point: 191 to 192 °C
SMILES: CON1CCC2(CC1)C(O)=C(c1cc(C)c(C)cc1Cl)C(=O)N2C [Compound P2.26, 3-(2-Chloro-4,5-dimethyl-phenyl)-4-hydroxy-8-methoxy-1-methyl-1,8-diaza-spiro[4.5]dec-3-en-2-one]

- melting point: 182 to 183 °C
SMILES: CON1CCC2(CC1)C(O)=C(c1cc(Br)c(C)cc1C)C(=O)N2C [Compound P2.28]

- melting point: 128 °C (dec.)
SMILES: COCON1C(=O)C(c2c(C)cc(-c3ccc(Cl)cc3)cc2C)=C(O)C12CCN(OC)CC2 [Compound P2ii.15, 3-(4′-Chloro-3,5-dimethyl-biphenyl-4-yl)-4-hydroxy-8-methoxy-1-methoxymethoxy-1,8-diaza-spiro[4.5]dec-3-en-2-one]

- melting point: 135 to 137 °C
SMILES: CON1CCC2(CC1)C(O)=C(c1c(C)cc(C)cc1C)C(=O)N2OCCOC1CCCCO1 (stereo not shown) [Compound P2ii.22]

- melting point: 155 to 158 °C
SMILES: COCON1C(=O)C(c2c(F)ccc(C)c2Cl)=C(O)C12CCN(OC)CC2 [Compound P2ii.60]

- melting point: 63 to 64 °C
SMILES: COCCON1C(=O)C(c2cc(Br)c(C)cc2C)=C(O)C12CCN(OC)CC2 [Compound P2ii.73]

- melting point: 86 to 87 °C
SMILES: CON1CCC2(CC1)C(O)=C(c1cc(Br)c(C)cc1C)C(=O)N2OC [Compound P2ii.75]

- melting point: 71 to 74 °C
SMILES: COCCON1C(=O)C(c2cc(Br)c(F)cc2C)=C(O)C12CCN(OC)CC2 [Compound P2ii.87]

- melting point: 64 to 67 °C
SMILES: COCON1C(=O)C(c2cc(Br)c(F)cc2C)=C(O)C12CCN(OC)CC2 [Compound P2ii.89]

- melting point: 169 to 172 °C
SMILES: CON1CCC2(CC1)C(O)=C(c1c(C)cc(C)cc1C)C(=O)N2OCC1CCCCC1 [Compound P2ii.96]

- melting point: 161 to 164 °C
SMILES: COCCON1C(=O)C(c2c(C)cc(Cl)cc2C)=C(O)C12CCN(OC)CC2 [Compound P2ii.101]

- melting point: 88 to 92 °C
SMILES: CON1CCC2(CC1)C(O)=C(c1c(C)cc(Cl)cc1C)C(=O)N2OC [Compound P2ii.102]

- melting point: 176 to 178 °C
SMILES: COCON1C(=O)C(c2c(C)cc(Cl)cc2C)=C(O)C12CCN(OC)CC2 [Compound P2ii.104]

- melting point: 137 to 139 °C
SMILES: CON1CCC2(CC1)C(O)=C(c1c(C)cc(Cl)cc1C)C(=O)N2OC1CCCO1 (stereo not shown) [Compound P2ii.105]

SMILES: CON1CCC2(CC1)C(O)=C(c1c(C)cc(C)cc1C)C(=O)N2C [Compound T1.070]
- BBCH (plant growth stage) [1]: 59
- NDVI (Normalized difference vegetative index) [1]: 0.418
- NIR (Near infrared band reflectance) [1]: 3.81

SMILES: CON1CCC2(CC1)NC(=O)C(c1cc(C)ccc1C)=C2O [Compound T1iii.030]
- BBCH (plant growth stage) [1]: 58
- NDVI (Normalized difference vegetative index) [1]: 0.486
- NIR (Near infrared band reflectance) [1]: 4.98

SMILES: CON1CCC2(CC1)NC(=O)C(c1c(C)cc(C)cc1C)=C2O [Compound T1iii.70]
- BBCH (plant growth stage) [1]: 58
- NDVI (Normalized difference vegetative index) [1]: 0.443
- NIR (Near infrared band reflectance) [1]: 4.92

SMILES: COCON1C(=O)C(c2cc(C)ccc2C)=C(O)C12CCN(OC)CC2 [Compound T20ii.030]
- BBCH (plant growth stage) [1]: 58
- NDVI (Normalized difference vegetative index) [1]: 0.427
- NIR (Near infrared band reflectance) [1]: 4.07

SMILES: COCON1C(=O)C(c2c(C)cc(C)cc2C)=C(O)C12CCN(OC)CC2 [Compound T20ii.070]
- BBCH (plant growth stage) [1]: 58
- NDVI (Normalized difference vegetative index) [1]: 0.518
- NIR (Near infrared band reflectance) [1]: 4.59

SMILES: COCCON1C(=O)C(c2c(C)cc(C)cc2C)=C(O)C12CCN(OC)CC2 [Compound T22ii.070]
- BBCH (plant growth stage) [1]: 59
- NDVI (Normalized difference vegetative index) [1]: 0.471
- NIR (Near infrared band reflectance) [1]: 4.18

SMILES: CCOC(=O)OC1=C(c2c(C)cc(Cl)cc2C)C(=O)N(C)C12CCN(OC)CC2 [T1.067, wherein G is CO2Et]
- No. of root tips, Mean (in %) relative to check ([2]; WinRhizo): 18.8%
- Root length, Mean (in %) relative to check ([2]; WinRhizo): 16.1%
- Mean no. of pods per plant, only pods >20 mm ([2]; check 1.8): 3.4
- Mean no. of pods per plant, all pods considered ([2]; check 5.4): 6.0
- pod length - sum per trmt (mm), only pods >20 mm ([2]; check 276): 545 mm
- pod length - sum per trmt (mm), all pods considered ([2]; check 452): 682 mm
- water consumption ([3]; foliar spray 100 ga/ha (EC050) 21 days after sowing, no watering after spray): 376 ml/26 days
- plant height ([3]; foliar spray 100 ga/ha (EC050)): 16.5 cm
- chlorophyll content ([3]; third trifoliate-leaf, foliar spray 100 ga/ha (EC050)): 43.4 reflectance
- water consumption ([4]; foliar spray 50 ga/ha (EC050) 21 days after sowing, no watering after spray): 219 ml/26 days
- plant height ([4]; foliar spray 50 ga/ha (EC050)): 26.9 cm

SMILES: CCOC(=O)OC1=C(c2cc(C)ccc2C)C(=O)N(OCOC)C12CCN(OC)CC2 [T20ii.030, wherein G is CO2Et]
- BBCH (plant growth stage) [1]: 59
- NDVI (Normalized difference vegetative index) [1]: 0.522
- NIR (Near infrared band reflectance) [1]: 4.45

SMILES: CCOC(=O)OC1=C(c2c(C)cc(C)cc2C)C(=O)N(OCOC)C12CCN(OC)CC2 [T20ii.070, wherein G is CO2Et]
- BBCH (plant growth stage) [1]: 59
- NDVI (Normalized difference vegetative index) [1]: 0.539
- NIR (Near infrared band reflectance) [1]: 4.65

Reference: patent US20140018242A1, “METHOD OF CROP ENHANCEMENT” (SYNGENTA PARTICIPATIONS AG, priority 2010, published 2014)
